What was measured:
Type in all cases: functional
Pieris brassicae = assay: Antifeedant activity against fifth-instar larval stage of Pieris brassicae fed on compound-treated cabbage leaf disks at 5 mM by two choice assay
Spodoptera exempta = assay: Antifeedant activity against Spodoptera exempta larvae fed on artificial diet containing compound at 100 ppm by two choice assay
Spodoptera frugiperda = assay: Antifeedant activity against Spodoptera frugiperda (fall armyworm) larvae fed on artificial diet containing compound at 100 ppm by two choice assay

Structure (SMILES)	AFI (Pieris brassicae)	AFI (Spodoptera exempta)	AFI (Spodoptera frugiperda)
CC1(C)OC(O)CC1(O)CCc1ccccc1 (configuration not stated)	5%	–	–
C[C@@H]1CC(O[Si](C)(C)C(C)(C)C)CC[C@@]1(C)CCC1=CC(=O)OC1 (some centres not stated)	–	34%	12%
CC(=O)OC[C@@]12[C@@H](OC(C)=O)C[C@@H](C)C(C)(C)[C@H]1CCC[C@]21CO1	–	20%	15%
COC1CC(O)(CCc2ccccc2)C(C)(C)O1 (configuration not stated)	23%	–	–
CC1(C)OCCC1(O)CCc1ccccc1 (configuration not stated)	28%	–	–
CC1(C)OC(=O)CC1(O)CCc1ccccc1 (configuration not stated)	36%	–	–
CC1(C)OC(=O)C=C1CCc1ccccc1	33%	–	–
CCCCCCC1=CC(=O)OC1(C)C	9%	–	–
CCCCCCC1(O)CC(=O)OC1(C)C (configuration not stated)	11%	–	–
CC1(C)OC(=O)CC1(O)CCC1CCCCC1 (configuration not stated)	15%	–	–
O=C1CC(CCC2CCCCC2)CO1 (configuration not stated)	-9.2%	–	–
O=C1C=C(CCC2CCCCC2)CO1	35%	–	–
O=C1CC(O)(CCC2CCCCC2)CO1 (configuration not stated)	-4%	–	–
CC1(C)OC(=O)C=C1CCC1CCCCC1	26%	–	–
CC(=O)OC[C@@]12[C@@H](OC(C)=O)C[C@@H](C)[C@](C)(C[C@H](O)c3ccoc3)[C@H]1CCC[C@]21CO1 [6,19-DIACETYLTEUMASSILIN]	–	38%	94%
CC(=O)OC[C@@]12[C@@H](OC(C)=O)C[C@@H](C)[C@](C)(CCC3=CC(=O)OC3)[C@H]1CCC[C@]21CO1 [AJUGARIN I]	–	73%	47%
CC(=O)OC[C@@]12[C@@H](OC(C)=O)C[C@@H](C)[C@](C)([C@@H]3C[C@H]4C=CO[C@H]4O3)[C@H]1CCC[C@]21CO1 [CLERODIN]	–	76%	78%

Reference: ChEMBL document CHEMBL3044952, “Synthesis and insect antifeedant activity of 2-substituted 2,3-dihydrofuran-3-ols and butenolides (Part II)” (1999)
